Results as given in ChEMBL document CHEMBL1145083, “Novel estrogen receptor ligands based on an anthranylaldoxime structure: role of the phenol-type pseudocycle in the binding process” (J Med Chem, 2003).
Several values for one entry are separate records, joined by “and”; a condition that tells them apart may be missing. Equal values may be shown once.

What was measured:
Estrogen receptor beta [1] = biological target: T1, Estrogen receptor beta (Homo sapiens, UniProt Q92731); test: Antagonist effect on transcriptional activation in HEC-1 cells expressing Estrogen receptor beta at 10e-6 M against 10e-9 M estradiol; assay type: functional, cell-based
T1 sequence (Q92731 whole entry): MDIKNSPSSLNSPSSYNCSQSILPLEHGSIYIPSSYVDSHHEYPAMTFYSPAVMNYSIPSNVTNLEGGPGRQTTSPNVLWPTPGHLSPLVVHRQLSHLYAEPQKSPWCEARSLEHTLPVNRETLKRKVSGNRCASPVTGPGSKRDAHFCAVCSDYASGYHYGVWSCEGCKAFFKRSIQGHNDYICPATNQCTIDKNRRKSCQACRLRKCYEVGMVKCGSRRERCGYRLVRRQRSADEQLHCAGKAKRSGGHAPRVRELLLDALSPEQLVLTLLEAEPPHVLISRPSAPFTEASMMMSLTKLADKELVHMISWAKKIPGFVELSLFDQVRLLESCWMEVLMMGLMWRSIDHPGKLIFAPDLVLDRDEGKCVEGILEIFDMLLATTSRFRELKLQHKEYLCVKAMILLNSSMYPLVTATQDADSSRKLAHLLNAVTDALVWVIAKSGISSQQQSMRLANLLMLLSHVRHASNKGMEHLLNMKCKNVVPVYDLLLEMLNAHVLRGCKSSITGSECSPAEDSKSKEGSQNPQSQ

Estrogen receptor beta [2] = biological target: T1, Estrogen receptor beta
Estrogen receptor beta [3] = biological target: T1, Estrogen receptor beta; test: Agonist effect on transcriptional activation in HEC-1 cells expressing Estrogen receptor beta at 10e-8 M; assay type: functional, cell-based
Estrogen receptor = biological target: T2, Estrogen receptor (Homo sapiens, UniProt P03372)
T2 sequence (P03372 whole entry): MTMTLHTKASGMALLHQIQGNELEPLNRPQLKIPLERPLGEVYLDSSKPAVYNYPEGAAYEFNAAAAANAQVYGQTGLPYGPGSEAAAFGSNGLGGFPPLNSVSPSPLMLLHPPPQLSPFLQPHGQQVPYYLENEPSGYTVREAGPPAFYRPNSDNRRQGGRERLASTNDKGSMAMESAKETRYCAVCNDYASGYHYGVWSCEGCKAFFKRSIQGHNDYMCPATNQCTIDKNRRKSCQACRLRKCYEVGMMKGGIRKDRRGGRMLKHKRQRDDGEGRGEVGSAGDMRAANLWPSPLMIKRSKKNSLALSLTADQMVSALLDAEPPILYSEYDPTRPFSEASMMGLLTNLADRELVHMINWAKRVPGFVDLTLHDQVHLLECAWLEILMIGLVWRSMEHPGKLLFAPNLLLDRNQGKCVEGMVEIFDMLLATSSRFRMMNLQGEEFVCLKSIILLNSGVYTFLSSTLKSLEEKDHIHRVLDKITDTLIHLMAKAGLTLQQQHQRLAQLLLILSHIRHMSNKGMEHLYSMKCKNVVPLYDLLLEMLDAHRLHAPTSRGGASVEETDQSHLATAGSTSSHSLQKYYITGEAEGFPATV

O/N=C/c1ccc(-c2ccccc2)c(-c2ccccc2)c1O
Efficacy (Estrogen receptor beta [1]): 53%
Ki (Estrogen receptor beta [2]): 1.7 nM
Efficacy (Estrogen receptor beta [3]): 2.6% and 24%
Ki (Estrogen receptor): 1.1 nM

O/N=C/c1ccc(-c2ccccc2)c(-c2ccccc2)c1
Efficacy (Estrogen receptor beta [1]): 69%
Ki (Estrogen receptor beta [2]): 0.27 nM
Efficacy (Estrogen receptor beta [3]): 1.3% and 20%
Ki (Estrogen receptor): 0.15 nM

CNc1c(/C=N/O)ccc(-c2ccccc2)c1-c1ccccc1
Efficacy (Estrogen receptor beta [1]): 71%
Ki (Estrogen receptor beta [2]): 5.2 nM
Efficacy (Estrogen receptor beta [3]): 1.1% and 22%
Ki (Estrogen receptor): 3.7 nM

CCNc1c(/C=N/O)ccc(-c2ccccc2)c1-c1ccccc1
Efficacy (Estrogen receptor beta [1]): 85%
Ki (Estrogen receptor beta [2]): 0.048 nM
Efficacy (Estrogen receptor beta [3]): 0.94% and 4.9%
Ki (Estrogen receptor): 0.47 nM

Nc1c(/C=N/O)ccc(-c2ccccc2)c1-c1ccccc1
Efficacy (Estrogen receptor beta [1]): 31%
Ki (Estrogen receptor beta [2]): 2.8 nM
Efficacy (Estrogen receptor beta [3]): 6% and 23%
Ki (Estrogen receptor): 2.2 nM
